# Laboratory results published in patent US20230302022A1, “PREVENTING OR MITIGATING CHEMOTHERAPY INDUCED ALOPECIA USING VITAMIN D” (priority 2016, published 2023).
# “Also recorded” adds a separate entry of the source.
# Assays:
# Sprague Dawley rats = assay: Cyclophosphamide-induced alopecia in neonatal Sprague Dawley rats, 1,25(OH)2D3 in ethanol; type: in vivo, rat; conditions: 0.2 μg 1,25(OH)2D3 in 150 μL ethanol daily day 5-10, all animals
# Procedure: Neonatal Rat model and PCA model. Sprague Dawley rats were purchased from Charles River Laboratories (Wilmington, MA). C3H/HeJ mouse were purchased from Jackson Laboratories (Bar Harbour, ME). Rodents were housed and fed according to NIH guidelines. […] Uskokovic (Hoffman-La Roche, Nutley, NJ). For experiments involving C3H/HeJ mice, 1,25(OH)2D3 was purchased from Sigma (St. Louis, M0). Topical application of 1,25(OH)2D3. 1,25(OH)2D3 was dissolved in absolute ethanol and applied topically with an applicator. Control animals were similarly treated with vehicle only. Animals were then isolated for a period of 3 hours following which the treated area was washed with soap and water and dried. For CIA experiments, 1,25(OH)2D3 was given daily beginning on day 5 after birth and ending on day 10. […] For CIA and PCA, the experimental group was treated with 0.2 μg of 1,25(OH)2D3 in 150 μL of absolute ethanol applied topically over the head and neck. In both instances, the control group received ethanol vehicle only. […] Both chemotherapies were started at 11 days of age. Alopecia was recorded on the tenth day after the first dose of chemotherapy. […] Rats were randomized into two groups of ten rats each. One group received vehicle control, while the other received 0.2 μg 1,25(OH)2D3. […] Animals were observed until complete hair regrowth was obtained.
# [1] = test system: MCF-7 (breast cancer with p53 mutation); assay: Cell growth / viability assay, MCF-7; type: cell-based
# Procedure: The drug treatment period was usually three days. At the end of the three days, the background OD of the 96-well plate was read at 280 nm, before 20 μL of the “Substrate Cell Titer 96 Aqueous One Solution Reagent” (Promega) was added to each well. The plate was returned to the 37° C. incubator, and its OD at 490 nm was read each hour until an OD of approximately 1.5 was reached. The net OD increase was calculated by subtracting the pre-substrate OD reading.
# The impact of the drug on the cells was calculated by comparing the OD at different concentrations in relation to the OD of the control wells (without the drug).
# Then these pretreated cells were utilized to set up the cell based assay.
# HEKa cells = assay: Antibody microarray (Panorama XP725) of calcitriol-treated HEKa cells; type: cell-based, human; conditions: 24-hour
# Procedure: Briefly, the treated HEKa cells were first harvested and then extracted to obtain a soluble protein supernatant. Two portions of the extracted protein sample (˜1 mg total) from each sample (at 1 mg/mL) were each labeled with fluorescent dye (Cy3 and Cy5, respectively). The excess dye was removed from the protein sample, and the resulting labeled protein samples were used for microarray incubation. To determine the expression level of a particular target protein at a later time point (e.g., at hour 6 or 24) relative to that at an earlier time point (e.g., at hour 3), the samples were labeled by different labels (e.g., 3-hour extract labeled with Cy3, 6-hour or 24-hour extract labeled with Cy5). Then the two labeled samples containing equal amounts of total protein were mixed (e.g., Cy3-labeled 3-hour sample is mixed with Cy5-labeled 6-hour or 24-hour samples, respectively). After incubation with the microarray chip (according to manufactures recommended protocols), the chips were washed and dried. The microarrays were then scanned with a fluorescent laser scanner to measure the relative fluorescence intensity of the Cy3 and Cy5 dyes. If the amount of a particular type of target protein increased (or decreased) over time, more (or less) of the dye associated with the later time point (e.g., Cy5) will be retained by the microarray. […]
# [2] = test system: MIAC51 (chloroleukemia cells); assay: Chloroleukemia (MIAC51) in rats: cure / survival under chemotherapy with topical calcitriol; type: in vivo, rat
# Procedure: For experiments in which rats were transplanted with chloroleukemia, on Day 5 after birth, rats were randomly divided into three groups of 45 each. All rats received 1×10^5 chloroleukemic cell line MIAC51 (i.p.) in 0.1 mL of serum free (SF) RPMI. MIAC51 were cultured in RPMI 1640 supplemented with L-glutamine and 10% fetal bovine serum at 37° C. in a 5% CO2, 100% humidity incubator. Cells were grown to 50% confluency (1.5×106 mL) collected in 50 mL conical tubes, centrifuged at 600 g×10 min. at room temperature and resuspended in SF-RPMI at a concentration of 1×10^6/mL. Group 1 rats received no further treatment. Group 2 rats received topical vehicle and CTX on day 13. […] Topical applications were performed as described above.
# On day 23 after birth, a sample of blood was taken from all rats and differentials performed. Rats with leukemia were sacrificed, rats without leukemia were kept and a second differential performed on day 31, at any point if leukemia was detected, animals were sacrificed by CO2 asphyxiation.
# On day 5 after birth all rats received 1×105 MIAC51 intraperitoneally in 0.1 mL of serum free (SF) RPMI. MIAC51 were cultured in RPMI 1640 supplemented with L-glutamine and 10% fetal bovine serum at […] in a 5% CO2, 100% humidity incubator. Cells were grown to 50% confluency (1.5×106 mL) collected in 50 mL conical tubes, centrifuged at 600 g for 10 minutes at room temperature and resuspended in SF-RPMI at a concentration of 1×10^6/mL prior to injection.
# […]
smiles,measurement,setting,value
"C=C1/C(=C\C=C2/CCC[C@]3(C)[C@@H]([C@H](C)CCCC(C)(C)O)CC[C@@H]23)C[C@@H](O)C[C@@H]1O [Calcitriol, (5Z,7E)-9,10-secocholesta-5,7.10(19Hriene-1 a,33.25-triol]",cyclophosphamide-induced alopecia,Sprague Dawley rats,did not develop alopecia
same,effect of calcitriol on the cytotoxic effect of Doxorubicin,[1]; MCF-7,did not appear to appreciably alter
same,"response to doxorubicin, cisplatin and erlotinib after calcitriol exposure","[1]; MCF-7, 0.1 μg/mL calcitriol for two passages",did not alter
same,proteins significantly upregulated (number),HEKa cells,about fifty proteins
same,"Survival Rate, %","[2]; ADM, Paclitaxel and Etoposide, after Two Rounds",80%
same,"Survival Rate, %","[2]; CTX and ADM, after Two Rounds",50%
same,"Survival Rate, %","[2]; CTX, ADM and ARA-C, after Two Rounds",78%
same,"Survival Rate, %","[2]; CTX, Paclitaxel and Etoposide, after Two Rounds",83%
same,"Survival Rate, %","[2]; CTX, after Two Rounds of Chemotherapy",25%
same,protection of the cancer cells from chemotherapy (cyclophosphamide),"[2]; Long Evans rats injected with MIAC51, topical calcitriol",does not protect the cancer cells from chemotherapy; also recorded: have not shown protection; also recorded: not protecting the cancer cells
same,effect on the cure rate associated with cyclophosphamide,"[2]; chloroleukemia induced (MIAC51), calcitriol 1-3 μg/mL study",did not affect the cure rate
same,interference with the cure rate,"[2]; cyclophosphamide and doxorubicin group, cure rate 50-55%",did not interfere with the cure rate
same,interference with the cure rate,"[2]; cyclophosphamide group, cure rate 20-25%",did not interfere with the cure rate
same,interference with the cure rate,"[2]; cyclophosphamide, doxorubicin and cytarabine group, cure rate 75-80%",did not interfere with the cure rate
same,interference with the cure rate,"[2]; cyclophosphamide, paclitaxel and etoposide group, cure rate 78-83%",did not interfere with the cure rate
same,interference with the cure rate,"[2]; doxorubicin, paclitaxel and etoposide group, cure rate 80-83%",did not interfere with the cure rate
same,effect on the efficacy of the chemotherapy agents,[2]; number of animals free from leukemia,did not affect the efficacy of the chemotherapy agents
